# According to patent publication US12145920B2, “Lanthionine c-like protein 2 ligands, cells prepared therewith, and therapies using same” (NImmune Biopharma, Inc., priority 2019, dated 2024):
# Entries after “also recorded” stand apart in the source; their conditions may differ.
# How the values were obtained:
# [1] = test system: LANCL2 deficient CD4+ T cells; test: Immune effects in CD4+ splenocytes, flow cytometry (LANCL2 deficient); format: cell-based, C57BL/6 mice; conditions: in the absence of LANCL2, 0.1, 1 and 10 μM
# Source text: (§1) Cell culture. Spleens were excised from C57BL/6 mice and assessed in wild-type and LANCL2 deficient states. Spleens were crushed between the frosted ends of microscope slides and filtered to provide a cellular suspension. Red blood cells were lysed through hypotonic lysis. Remaining cells were washed and filtered. CD4+ T cells were enriched within the suspension using magnetic sorting based negative selection. Cells were collected and plated within 96 well plates coated with anti-CD3 and cultured in the presence of BT-63 at 0, 0.1, 1 and 10 micromolar or BT-104A, BT-104B, or BT-104C at 0.1 micromolar for 48 h. During the last 6 h of culture, cells were stimulated with phorbol 12-myristate-13-acetate (PMA) and ionomycin.
# (§2) Immunological analysis. Cells were collected from 96 well plates and stained with a cocktail of antibodies for immunophenotyping by flow cytometry. Culture supernatant was collected and assayed for cytokine concentrations by cytometric bead array. Data was captured on a BD FACS Celesta and analyzed using FacsDiva.
# [2] = Pharmacokinetics after oral dosing in mice, plasma LC-MS/MS; format: in vivo, C57BL/6 mice; set-up: exposure: unit not given here
# Protocol: C57BL/6 mice were dosed orally with 10 and 40 mg/kg of BT-63 by oral gavage of methylcellulose solution containing BT-63. After gavage, blood was collected at 0.5, 1, 2, 4, 6, 8, 12 and 24 hours after treatment. Plasma was collected from blood by centrifugation. BT-63 was extracted from plasma and quantified by LC-MS/MS.
# LANCL2 protein = target: T1, LANCL2 protein (Homo sapiens, UniProt Q9NS86); test: Surface plasmon resonance binding to LANCL2 (Biacore T200); conditions: SPR, immobilized LANCL2, analyte 0-40 μM
# T1 construct: made in house; host or cells: Pichia pastoris
# T1 sequence (Q9NS86 1-450): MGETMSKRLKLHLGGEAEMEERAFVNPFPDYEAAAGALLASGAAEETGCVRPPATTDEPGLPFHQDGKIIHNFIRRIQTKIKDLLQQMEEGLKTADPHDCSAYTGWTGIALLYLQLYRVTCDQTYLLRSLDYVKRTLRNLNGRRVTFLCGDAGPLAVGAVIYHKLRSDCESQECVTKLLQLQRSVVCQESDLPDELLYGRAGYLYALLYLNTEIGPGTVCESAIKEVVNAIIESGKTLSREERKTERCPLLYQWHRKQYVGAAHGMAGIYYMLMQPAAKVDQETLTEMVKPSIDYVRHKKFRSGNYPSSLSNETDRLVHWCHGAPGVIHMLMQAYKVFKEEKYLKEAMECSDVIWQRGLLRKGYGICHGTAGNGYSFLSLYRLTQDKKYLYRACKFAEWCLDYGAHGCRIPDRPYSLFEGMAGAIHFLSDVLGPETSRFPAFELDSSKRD
# Protocol: LANCL2 production and purification. LANCL2 was cloned into E. coli, amplified and transfected in Pichia pastoris. P. pastoris was plated onto adenine selective media. Stable transfected colonies were selected and grown within YPD broth at 30° C. for 24 hours, 240 RPM shaking. Starter culture was used to inoculate base media (1% yeast extract, 2% peptone, 1% sorbitol, 2% yeast nitrogen base) containing biotin and buffered with potassium phosphate. Inoculated base media was incubated for 48 hours at 30° C., 240 RPM. P. pastoris was then pelleted by centrifugation and resuspended in expression media (1% sorbitol, 2% yeast nitrogen base) containing biotin and buffered with potassium phosphate. Culture was induced daily for protein production through addition of methanol and incubated for a total of 4 days at 28° C., 240 RPM. After incubation, cells were pelleted by centrifugation and lysed by sonication. Recombinant LANCL2 protein was purified by fast protein liquid chromatography (AktaPrime) using immobilized metal affinity chromatography. Fractions of protein were eluted in 1 mL aliquots and evaluated for LANCL2 content.
# Surface plasmon resonance. A Biacore T200 was used to evaluate binding to the LANCL2 protein. Protein was immobilized onto the CMS sensor chip. […] Based on the immobilized response values, theoretical Rmax values were calculated. […]
# [3] = test system: Non-obese diabetic (NOD) ShiLt mice; test: NOD mouse model of T1D; format: in vivo
# Protocol: NOD model. Non-obese diabetic (NOD) ShiLt mice were used in this study. NOD mice have numerous genetic mutations that enable the spontaneous onset of hyperglycemia and pancreatic pathologies associated with T1D. Mice entered into the experiment at 9 weeks of age and were monitored for a […]. Mice were treated daily with vehicle, 10 mg/kg BT-63, or 20 mg/kg BT-63 by oral gavage. Once weekly blood samples were collected from the tail vein to be tested for glucose concentration by glucometer. Mice were euthanized after 12 weeks for collection of blood and organs for immunological testing.
# Treatment administration. BT-63 was prepared within a 0.5% methylcellulose (12-15 cP) solution. Dosage used was 10 or 20 mg/kg delivered once daily. Mice were weighed on a weekly basis to update dosage formulation. Dosage was calculated based off mean body weights for each gender. Oral dosage was delivered by orogastric gavage of dosage in 0.2 mL volume.
# Immunological analysis. Blood was collected by cardiac puncture into heparinized tube. Plasma was separated following centrifugation and assayed by Luminex for cytokine and hormones related to the development of T1D. Spleens were excised, crushed and filtered to provide a cellular suspension. Red blood cells were lysed. Cells were labeled with mixtures of extracellular (CD45, CD3, CD4, CD8, CD19, NK1.1, CD25, F4/80, CD11b, Gr1, CX3CR1, CD64) and intracellular (Tbet, BCL6, FOXP3, IFNγ, IL21, IL10) antibodies in a sequential live staining in 96-well plates in preparation for flow cytometry. Data was captured on a BD FACS Celesta and analyzed using FacsDiva.
# CD4+ T cells = test: Immune effects in CD4+ splenocytes, flow cytometry (wild type); format: cell-based, C57BL/6 mice
# Source text: as §1, §2
# [4] = 21 weeks of age, oral 10 or 20 mg/kg
# [5] = spleen, 21 weeks of age, oral 10 or 20 mg/kg
# [6] = wild-type cells, 0.1, 1 and 10 μM, 48 h
smiles,measurement,setting,value
"O=C(CN1CCN(C(=O)c2cccc(-c3nc4ccccc4[nH]3)n2)CC1)c1ccccc1 [BT-63, 2-(4-(6-(1H-benzo[d]imidazol-2-yl)picolinoyl)piperazin-1-yl)-1-phenylethanone]","effects on IFNγ+, TNFa+ and IL10+ FOXP3+ CD4+ T cells",[1],lost
same,increase in maximum plasma concentration compared to BT-11,[2]; equal oral doses (10 mg/kg),> 100 fold
same,area under the curve exposure,[2]; oral 10 mg/kg,1055 ng·h/mL
same,maximum plasma concentration,[2]; oral 10 mg/kg,585 ng/mL
same,exposure,[2]; oral 40 mg/kg,11552
same,maximum plasma concentration,[2]; oral 40 mg/kg,4465 ng/mL
same,Kd,LANCL2 protein,2.74 µM
same,reduction of percentage of hyperglycemic mice,[3]; 20 mg/kg group compared to vehicle,50%
same,HbA1c,"[3]; 21 weeks of age, 10 mg/kg",reduced
same,HbA1c,"[3]; 21 weeks of age, 20 mg/kg",reduced
same,plasma MCP-1,[3]; [4],reduced
same,plasma TNF,[3]; [4],reduced
same,plasma levels of C-peptide,[3]; [4],increased
same,plasma levels of insulin,[3]; [4],increased
same,blood glucose levels,"[3]; NOD mice, oral daily, from 19 weeks of age through end",significantly lower
same,CD4+IL10+ to CD4+IFNγ+ ratio,[3]; [5],increased
same,PD1+ CD4+ T cells,[3]; [5],increasing
same,T follicular helper (Tfh) cells (BCL6+IL21+),[3]; [5],decreasing
same,FOXP3+ CD4+ T cells,"CD4+ T cells; 0.1, 1 and 10 micromolar, FIG. 4A",significant increase
same,proportions of IFNγ+ CD4+ T cells,CD4+ T cells; [6],reduced; also recorded: significant decrease
same,proportions of IL10+ FOXP3+ CD4+ T cells,CD4+ T cells; [6],increased
same,proportions of TNFa-producing CD4+ T cells,CD4+ T cells; [6],reduced
